Measurements from patent publication US20220372040A1, “METTL3 MODULATORS” (Accent Therapeutics, Inc., priority 2020, published 2022).

Experiments:
[1] = test system: MOLM-13 cells; assay: MOLM-13 96 Hour cell proliferation assay (Cell Titer-Glo); format: cell-based; conditions: Homo sapiens
Protocol: MOLM-13 96 Hour Cell Proliferation Assay
MOLM-13 (DSMZ) cells were seeded at 600 cells per well in a volume of 44 μL in a Greiner Bio-One CELLSTAR™ 384 Well Polystyrene Cell Culture clear bottom microplate in RPMI 1640 media containing 10% fetal bovine serum using a Multidrop Combi (ThermoFisher Scientific). Cells were incubated overnight at 37° C. in a humidified tissue culture incubator. To prevent evaporation or to reduce edge effect, add 50 μL or more H2O to an empty plate, cover, and place on top of the cell plates. The Mosquito® HTS Liquid Handler was used to make a compound/media intermediate plate by aliquoting 1 μL of compound from the initial compound dilution plate (concentrations ranging from 10.0 mM to 38.0 nM in 100% DMSO) into Bio-One 384-well polypropylene conical bottom microplate containing 49 μL of media containing the appropriate serum (50-fold dilution, 2% DMSO, compound concentrations ranging from 200.0 μM and […]). The Apricot liquid handling system was used to transfer 6.2 μL compounds from the intermediate plate into the seeding plate containing 44 μL cells (8-fold dilution spanning concentrations 25.0 μM to […], 0.25% DMSO final), and placed in a humidified tissue culture incubator at 37° C. After 96 hours, 25 μL of Cell Titer-Glo reagent (Promega) was added to each well using an Integra liquid handling system. The plate was protected from light using TopSeal-A (Black) film over the entire plate, added White Bottom seal film on the bottom of the entire plate for a better reading on the Envision, and placed on an IKA plate shaker for at 300 rpm for 10 minutes at room temperature. The plate was read on an EnVision plate reader (Perkin Elmer) using the Ultra Sensitive Luminescence protocol. Data analysis was performed by normalizing the raw luminescence units to an average of the positive control values for staurosporine (100% cell death) and the negative control values for DMSO (0% cell death). An IC50 was calculated using a 4-parameter logistic nonlinear regression model in GraphPad Prism.

[2] = biological target: METTL3/METTL14 (Homo sapiens, UniProt Q86U44); assay: METTL3-14 standard enzyme assay (3H-SAM flashplate scintillation); format: biochemical; conditions: METTL3/METTL14 2.5 nM, RNA 100 nM, 3H-SAM 100 nM, 30 min
In short: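 Radiometric methylation readout: biotinylated RNA substrate UCUGGACUAAA and 3H-SAM, each 100 nM final, reacted 30 min at ambient temperature with 2.5 nM enzyme complex after 5 min compound preincubation (HEPES pH 7.5 buffer, KCl, MgCl2, DTT). Excess unlabelled SAM (15 μM) stopped reactions before streptavidin flashplate capture.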

[3] = biological target: PRMT5-MEP50 (Homo sapiens, UniProt O14744); assay: PRMT5 assay (3H-SAM flashplate scintillation); format: biochemical; conditions: PRMT5-MEP50 2.5 nM, histone H4 peptide 100 nM, 3H-SAM 250 nM, 60 min
In short: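 Radiometric methyltransferase read-out: after 60 min reaction, excess unlabelled SAM (15 μM) stops turnover and biotinylated H4 peptide (100 nM) carrying 3H-methyl from 250 nM 3H-SAM is captured on streptavidin flashplates (2 h, 25° C) for scintillation counting. Enzyme, 2.5 nM PRMT5-MEP50, was preincubated 5 min with compound in pH 8.0 Tris buffer with DTT and Tween.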

[4] = biological target: METTL1/WDR4 (Homo sapiens, UniProt Q9UBP6); assay: METTL1 assay (3H-SAM flashplate scintillation); format: biochemical; conditions: METTL1/WDR4 6.25 nM, RNA 25 nM, 3H-SAM 60 nM, 20 min; read-out: METTL1 IC50
Protocol: (§1) Assays were performed in a 25 μl-volume in 384-well V-bottom polypropylene microplates (Greiner Bio-One, cat. No. 781280) at ambient temperature. Optimized 1× assay buffer was 20 mM HEPES pH 7.5, 50 mM KCl, 250 μM MgCl2, 1 mM DTT, 0.01% Tween, 0.01% BSG, 0.004 U/μl RNAseOUT (cat. No. 10777019, ThermoFisher Scientific, Waltham, Mass.). For compound screening METTL1/WDR4 (final concentration, f.c.=6.25 nM) was added using a Multidrop Combi (ThermoFisher Scientific, Waltham, Mass.) and preincubated for 5 min. Reactions were started by adding 3′ biotinylated RNA ([…]-biotin) (f.c.=25 nM) and 3H-SAM (f.c.=60 nM) substrates. Reactions proceeded for 20 minutes and were quenched with excess non-radioactive SAM (f.c.=15 μM). The reactions were then transferred to streptavidin-coated flashplates and incubated for 2 hours at 25° C. Following two washing cycles with 0.1% Tween-20, the plates were sealed and read on a TopCount (PerkinElmer, Waltham, Mass.) plate-based scintillation counter. For determination of kinetic parameters, reaction times were optimized so that measurements were taken during the initial velocity phase of the reaction.

[5] = biological target: T1, METTL16 (Homo sapiens, UniProt Q86W50); assay: METTL16 assay (3H-SAM flashplate scintillation); format: biochemical; conditions: METTL16 100 nM, RNA 50 nM, 3H-SAM 200 nM, SAM 800 nM, 20 min
T1 sequence (Q86W50 1-562): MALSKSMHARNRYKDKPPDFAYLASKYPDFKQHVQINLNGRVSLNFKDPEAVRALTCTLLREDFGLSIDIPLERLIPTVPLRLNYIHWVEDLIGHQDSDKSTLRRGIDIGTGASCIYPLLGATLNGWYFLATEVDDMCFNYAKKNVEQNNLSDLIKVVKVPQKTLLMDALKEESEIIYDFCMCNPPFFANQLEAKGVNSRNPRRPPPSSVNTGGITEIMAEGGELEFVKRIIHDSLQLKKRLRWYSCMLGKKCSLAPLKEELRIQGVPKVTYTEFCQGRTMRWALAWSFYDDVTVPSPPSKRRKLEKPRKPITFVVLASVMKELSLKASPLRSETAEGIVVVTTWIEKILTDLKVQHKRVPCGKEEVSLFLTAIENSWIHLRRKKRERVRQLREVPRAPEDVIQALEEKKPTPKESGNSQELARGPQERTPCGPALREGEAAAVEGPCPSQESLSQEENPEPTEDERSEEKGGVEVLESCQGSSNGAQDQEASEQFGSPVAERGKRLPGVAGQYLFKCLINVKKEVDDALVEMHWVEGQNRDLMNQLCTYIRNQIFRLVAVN
Protocol: as §1, with “KCl,” for “KCl, 250 μM MgCl2,”, “METTL16” for “METTL1/WDR4”, “f.c.=100” for “f.c.=6.25”, “(f.c.=50 nM), 3H-SAM (f.c.=200” for “(f.c.=25”, “non-radiolabeled SAM (f.c.=800” for “3H-SAM (f.c.=60”, “(f.c.=100” for “(f.c.=15”

Chain of PRMT5-MEP50 (O14744 whole entry): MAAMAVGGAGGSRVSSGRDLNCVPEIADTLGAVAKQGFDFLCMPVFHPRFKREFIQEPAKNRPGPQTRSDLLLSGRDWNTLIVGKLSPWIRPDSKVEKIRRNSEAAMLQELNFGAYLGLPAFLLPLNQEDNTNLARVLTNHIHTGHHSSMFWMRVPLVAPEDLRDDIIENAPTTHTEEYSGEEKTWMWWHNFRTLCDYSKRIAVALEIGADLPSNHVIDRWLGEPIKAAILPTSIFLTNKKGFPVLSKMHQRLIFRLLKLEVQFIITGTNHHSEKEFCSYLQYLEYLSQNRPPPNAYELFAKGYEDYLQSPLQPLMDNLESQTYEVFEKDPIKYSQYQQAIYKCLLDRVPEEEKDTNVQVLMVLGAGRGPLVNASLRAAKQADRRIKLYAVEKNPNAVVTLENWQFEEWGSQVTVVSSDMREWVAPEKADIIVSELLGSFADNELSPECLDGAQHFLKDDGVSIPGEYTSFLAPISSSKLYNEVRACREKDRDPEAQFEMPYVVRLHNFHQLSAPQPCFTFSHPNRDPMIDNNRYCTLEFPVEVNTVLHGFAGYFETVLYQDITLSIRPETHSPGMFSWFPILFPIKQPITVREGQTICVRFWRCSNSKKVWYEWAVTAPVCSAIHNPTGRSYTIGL
Chain of PRMT5-MEP50 (Q9BQA1 whole entry partner): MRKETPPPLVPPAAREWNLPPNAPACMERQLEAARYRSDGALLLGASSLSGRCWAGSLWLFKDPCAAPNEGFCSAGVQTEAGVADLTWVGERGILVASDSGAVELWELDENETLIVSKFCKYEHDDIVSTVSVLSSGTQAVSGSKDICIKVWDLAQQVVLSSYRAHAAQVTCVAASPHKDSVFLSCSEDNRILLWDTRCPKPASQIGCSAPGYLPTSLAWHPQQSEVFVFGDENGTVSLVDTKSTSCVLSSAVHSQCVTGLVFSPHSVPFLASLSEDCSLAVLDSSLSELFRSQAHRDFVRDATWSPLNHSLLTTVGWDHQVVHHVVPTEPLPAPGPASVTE
Chain of METTL1/WDR4 (Q9UBP6 whole entry, species assumed): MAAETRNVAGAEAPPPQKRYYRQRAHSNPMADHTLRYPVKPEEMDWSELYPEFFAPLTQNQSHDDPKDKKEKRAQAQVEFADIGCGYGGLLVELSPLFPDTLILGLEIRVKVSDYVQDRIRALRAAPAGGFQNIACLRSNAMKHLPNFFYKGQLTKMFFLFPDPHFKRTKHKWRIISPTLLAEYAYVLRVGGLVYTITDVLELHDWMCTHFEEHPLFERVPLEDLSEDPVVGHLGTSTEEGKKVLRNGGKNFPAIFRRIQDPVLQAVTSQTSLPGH
Chain of METTL1/WDR4 (P57081 whole entry partner, species assumed): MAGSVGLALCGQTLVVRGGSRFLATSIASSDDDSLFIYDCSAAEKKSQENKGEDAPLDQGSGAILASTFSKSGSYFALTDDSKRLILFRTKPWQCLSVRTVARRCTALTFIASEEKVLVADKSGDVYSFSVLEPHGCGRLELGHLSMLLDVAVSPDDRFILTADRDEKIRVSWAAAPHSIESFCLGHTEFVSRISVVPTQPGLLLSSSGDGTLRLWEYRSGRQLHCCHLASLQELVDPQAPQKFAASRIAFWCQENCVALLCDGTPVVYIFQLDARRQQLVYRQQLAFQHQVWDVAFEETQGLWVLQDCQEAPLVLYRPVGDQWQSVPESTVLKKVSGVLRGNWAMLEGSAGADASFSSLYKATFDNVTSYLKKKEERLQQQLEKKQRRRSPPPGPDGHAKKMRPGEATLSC
Chain of METTL3/METTL14 (Q86U44 whole entry, species assumed): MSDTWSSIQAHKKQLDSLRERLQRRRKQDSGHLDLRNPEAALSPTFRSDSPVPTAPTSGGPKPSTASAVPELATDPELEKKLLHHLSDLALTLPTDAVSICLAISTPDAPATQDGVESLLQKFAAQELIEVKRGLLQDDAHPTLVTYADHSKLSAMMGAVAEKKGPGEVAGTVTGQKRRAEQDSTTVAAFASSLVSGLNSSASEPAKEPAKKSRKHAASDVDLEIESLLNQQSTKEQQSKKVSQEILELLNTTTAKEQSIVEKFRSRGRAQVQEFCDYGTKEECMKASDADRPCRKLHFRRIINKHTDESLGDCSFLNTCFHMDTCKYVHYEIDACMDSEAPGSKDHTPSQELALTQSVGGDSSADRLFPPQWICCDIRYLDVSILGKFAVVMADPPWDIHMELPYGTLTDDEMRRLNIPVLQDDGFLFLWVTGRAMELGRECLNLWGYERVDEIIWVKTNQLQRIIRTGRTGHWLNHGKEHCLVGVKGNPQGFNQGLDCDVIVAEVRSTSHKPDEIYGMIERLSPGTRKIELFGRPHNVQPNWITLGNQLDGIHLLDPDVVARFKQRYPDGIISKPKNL
Chain of METTL3/METTL14 (Q9HCE5 whole entry partner, species assumed): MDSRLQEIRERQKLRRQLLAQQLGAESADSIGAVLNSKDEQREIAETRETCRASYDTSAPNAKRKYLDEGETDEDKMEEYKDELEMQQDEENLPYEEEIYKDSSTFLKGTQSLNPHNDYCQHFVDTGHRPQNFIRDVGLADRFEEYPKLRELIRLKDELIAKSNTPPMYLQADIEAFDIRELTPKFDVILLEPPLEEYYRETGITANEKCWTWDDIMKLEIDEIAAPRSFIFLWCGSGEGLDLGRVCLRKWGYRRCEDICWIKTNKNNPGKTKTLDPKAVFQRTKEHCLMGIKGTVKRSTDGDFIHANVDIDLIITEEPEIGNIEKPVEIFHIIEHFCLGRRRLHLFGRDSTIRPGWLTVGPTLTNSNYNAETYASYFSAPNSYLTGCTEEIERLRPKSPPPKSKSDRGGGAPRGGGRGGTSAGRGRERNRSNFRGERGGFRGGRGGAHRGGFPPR

| IC50 [1] | IC50 [2] | SMILES | IC50 [3] | IC50 [4] | IC50 [5] |
| --- | --- | --- | --- | --- | --- |
| < 1 µM | < 0.01 µM | CCc1cc(N2CCOCC2)c2ccc(OCc3cncc(-n4cc([C@@H]5CCCO5)c5c(N)ncnc54)c3)cc2n1 [Compound I-143] |  |  |  |
| 1 to 10 µM | < 0.01 µM | CCNc1ccc2ccc(CCc3cncc(-n4cc([C@H]5CCCO5)c5c(N)ncnc54)c3)cc2n1 [Compound I-156] |  |  |  |
| < 1 µM | 0.01 to 0.1 µM | CCc1cc(N2CCOCC2)c2ccc(OCc3cncc(-n4cc([C@H]5CCCO5)c5c(N)ncnc54)c3)cc2n1 [Compound I-142] |  |  |  |
| < 1 µM | < 0.01 µM | CCc1cc(NCCOC)c2c(F)cc(OCc3cncc(-n4cc(-c5ccn(C)n5)c5c(N)ncnc54)c3)cc2n1 [Compound I-229] |  |  |  |
| < 1 µM | < 0.01 µM | CN(CCO)c1ccc2ccc(OCc3cncc(-n4cc(-c5ccn(C)n5)c5c(N)ncnc54)c3)cc2n1 [Compound I-169] | > 1 µM |  |  |
| 1 to 10 µM | 0.01 to 0.1 µM | CS(=O)(=O)c1cn(-c2cncc(COc3ccc4ccc(N5CCC5)nc4c3)c2)c2ncnc(N)c12 [Compound I-185] | > 1 µM |  |  |
| < 1 µM | < 0.01 µM | Nc1ncnc2c1c([C@H]1CCCO1)cn2-c1cncc(COc2ccc3ccc(N4CCC4)nc3c2)c1 [Compound I-144] |  |  |  |
| < 1 µM | < 0.01 µM | CCc1cc(NCCOC)c2ncc(CCc3cncc(-n4cc(-c5ccn(C)n5)c5c(N)ncnc54)c3)cc2n1 [Compound I-132] |  |  |  |
| < 1 µM | < 0.01 µM | CCc1cc(N(C)C2CC2)c2ccc(OCc3cncc(-n4cc([C@@H]5CCCO5)c5c(N)ncnc54)c3)cc2n1 [Compound I-167] |  |  |  |
| < 1 µM | < 0.01 µM | CCNc1ccc2ccc(OCc3cncc(-n4cc([C@H]5CCCO5)c5c(N)ncnc54)c3)cc2n1 [Compound I-134] |  |  |  |
| < 1 µM | < 0.01 µM | CCc1cc(NCCOC)c2ccc(OCc3cncc(-n4cc(COC)c5c(N)ncnc54)c3)cc2n1 [Compound I-231] | > 1 µM |  |  |
| 1 to 10 µM | < 0.01 µM | Cn1ccc(-c2cn(-c3cncc(COc4ccc5ccc(N6CC(F)(F)C6)nc5c4)c3)c3ncnc(N)c23)n1 [Compound I-212] | > 1 µM |  |  |
| < 1 µM | < 0.01 µM | CCc1cc(NCCOC)c2ncc(OCc3cncc(-n4cc([C@@H]5CCCO5)c5c(N)ncnc54)c3)cc2n1 [Compound I-152] |  |  |  |
| < 1 µM | < 0.01 µM | CCNc1ccc2ccc(OCc3cncc(-n4cc([C@@H]5CCCO5)c5c(N)ncnc54)c3)cc2n1 [Compound I-146] |  |  |  |
| < 1 µM | < 0.01 µM | CCCc1cc(N)c2ccc(CCc3cncc(-n4cc(-c5ccn(C)n5)c5c(N)ncnc54)c3)cc2n1 [Compound I-131] |  |  |  |
| < 1 µM | < 0.01 µM | CCc1cc(NCCOC)c2c(F)cc(CCc3cncc(-n4cc(-c5ccn(C)n5)c5c(N)ncnc54)c3)cc2n1 [Compound I-228] |  |  |  |
| < 1 µM | < 0.01 µM | CCc1cc(N2CCOCC2)c2ncc(OCc3cncc(-n4cc(-c5ccn(C)n5)c5c(N)ncnc54)c3)cc2n1 [Compound I-150] |  |  |  |
| < 1 µM | < 0.01 µM | CCc1cc(NC)c2ccc(OCc3cncc(-n4cc(-c5ccn(CCOC)n5)c5c(N)ncnc54)c3)cc2n1 [Compound I-154] |  |  |  |
| 1 to 10 µM | < 0.01 µM | CCc1cc(N2CCNCC2)c2ccc(OCc3cncc(-n4cc([C@@H]5CCCO5)c5c(N)ncnc54)c3)cc2n1 [Compound I-149] |  |  |  |
| 1 to 10 µM | < 0.01 µM | COCc1cn(-c2cncc(COc3ccc4ccc(N5CCC5)nc4c3)c2)c2ncnc(N)c12 [Compound I-237] |  |  |  |
| < 1 µM | < 0.01 µM | CCc1cc(NCCOC)c2ccc(OCc3cncc(-n4cc([C@@H]5CCCO5)c5c(N)ncnc54)c3)cc2n1 [Compound I-141] |  |  |  |

| SMILES | IC50 [1] | IC50 [2] | IC50 [3] | IC50 [4] | IC50 [5] |
| --- | --- | --- | --- | --- | --- |
| C[C@H]1CCN1c1ccc2ccc(OCc3cncc(-n4cc(C5CCCC5)c5c(N)ncnc54)c3)cc2n1 [Compound I-125] |  | 0.01 to 0.1 µM | > 1 µM | > 1 µM | > 1 µM |
| CNc1ccc2ccc(OCc3cccc(-n4cc(C5CC5)c5c(N)ncnc54)c3)cc2n1 [Compound I-73] |  | 0.01 to 0.1 µM | > 1 µM | > 1 µM | > 1 µM |
| CNc1ccc2ccc(OCc3cc(C#N)cc(-n4ccc5c(N)ncnc54)c3)cc2n1 [Compound I-119] |  | 0.1 to 1 µM | > 1 µM | > 1 µM | > 1 µM |
| CNc1ccc2ccc(OCc3nnc(-n4cc(Cl)c5c(N)ncnc54)s3)cc2n1 [Compound I-62] |  | > 1 µM | 0.01 to 0.1 µM | > 1 µM | > 1 µM |
| CNc1ccc2ccc(OCc3cc(O)cc(-n4cc(Cl)c5c(N)ncnc54)c3)cc2n1 [Compound I-81] |  | 0.01 to 0.1 µM | > 1 µM | > 1 µM | > 1 µM |
| CNc1ccc2ccc(OCc3cc(-n4cc(Cl)c5c(N)ncnc54)ccc3F)cc2n1 [Compound I-80] |  | 0.01 to 0.1 µM | > 1 µM | > 1 µM | > 1 µM |
